Data published in US20230348376A1 (TEIJIN PHARMA LIMITED, priority 2020, published 2023).

Experiments:
mouse cuprizone model = assay: Myelin regeneration promoting action in mouse cuprizone model (LFB staining of corpus callosum); format: in vivo; settings: 20 μg/kg oral once a day, 4 weeks after 6 weeks cuprizone diet; untreated = 100%
From the text: C57BL/6J mice (8 weeks old, male) were fed a diet containing 0.3% cuprizone (bis(cyclohexanone)oxaldihydrazone) (Research Diets, Inc. #D17042709) for 6 weeks to induce demyelination. Subsequently, the mice were divided into groups of 8 mice based on the body weight, the diet was switched to a cuprizone-free diet (Research Diets, Inc. #D10001), and administration of the test compound or vehicle was started. […] After administration of 4 weeks, the mice were euthanized, perfused with a 4% paraformaldehyde solution, and then brain sampling was performed. The brain sample obtained was embedded in paraffin to prepare a coronal section specimen at Bregma+1. The specimen was stained with Luxor Fast Blue (LFB) to visualize the myelin sheath, and images were acquired using a fluorescence microscope (KEYENCE #BZ-X710). The corpus callosum area and the LFB staining positive area in the corpus callosum of the obtained pathological specimen image were measured using an image analysis application (KEYENCE #BZ-H3C/BZ-H3XD), and the ratio (LFB staining positive area in the corpus callosum/corpus callosum area) was calculated. The intact group is a non-pathogenic group, and the […] control group were sampled after feeding the diet containing 0.3% cuprizone for 6 weeks.
In the table, the ratio of LFB staining positive area in the corpus callosum/corpus callosum area of the untreated group, fed with the cuprizone-free diet for 6 weeks, was regarded as 100%. As a result, the control group, fed with the cuprizone-containing diet for 6 weeks, decreased the ratio to 23.6%, and was confirmed to progress demyelination. The group, in which the cuprizone-containing diet was fed for 6 weeks and switched to the cuprizone-free diet, and the vehicle was administered, improved the ratio of area of LFB staining positive/area of corpus callosum to 50.1%. […] In addition, GSK239512 described in WO2013/107336 pamphlet was evaluated in the test to show the ratio of LFB staining positive area/corpus callosum area of 45.8%, in which no demyelination regeneration promoting action was shown as compared with the vehicle-administered group.

human VDR = target: T1, human VDR (Homo sapiens, UniProt P11473); assay: Evaluation of VDR transcription activity in human osteoblasts (HOS cells), luciferase reporter; settings: Activity (EC50, VDR transcription activity), HOS cells transfected with human VDR, human RXRα and DR3 luciferase reporter; 21 hours
T1 sequence (P11473 1-427): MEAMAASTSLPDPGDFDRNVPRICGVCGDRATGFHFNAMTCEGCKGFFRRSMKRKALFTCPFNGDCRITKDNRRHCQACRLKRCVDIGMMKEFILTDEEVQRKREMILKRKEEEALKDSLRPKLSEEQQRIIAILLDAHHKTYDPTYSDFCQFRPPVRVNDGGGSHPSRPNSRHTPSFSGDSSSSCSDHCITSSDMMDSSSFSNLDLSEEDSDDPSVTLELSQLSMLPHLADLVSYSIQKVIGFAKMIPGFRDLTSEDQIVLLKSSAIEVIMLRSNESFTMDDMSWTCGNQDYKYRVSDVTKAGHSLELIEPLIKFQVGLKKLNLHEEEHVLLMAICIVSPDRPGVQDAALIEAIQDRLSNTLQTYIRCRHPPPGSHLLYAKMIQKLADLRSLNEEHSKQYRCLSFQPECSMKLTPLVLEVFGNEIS
T1 sequence (P19793 1-462 partner): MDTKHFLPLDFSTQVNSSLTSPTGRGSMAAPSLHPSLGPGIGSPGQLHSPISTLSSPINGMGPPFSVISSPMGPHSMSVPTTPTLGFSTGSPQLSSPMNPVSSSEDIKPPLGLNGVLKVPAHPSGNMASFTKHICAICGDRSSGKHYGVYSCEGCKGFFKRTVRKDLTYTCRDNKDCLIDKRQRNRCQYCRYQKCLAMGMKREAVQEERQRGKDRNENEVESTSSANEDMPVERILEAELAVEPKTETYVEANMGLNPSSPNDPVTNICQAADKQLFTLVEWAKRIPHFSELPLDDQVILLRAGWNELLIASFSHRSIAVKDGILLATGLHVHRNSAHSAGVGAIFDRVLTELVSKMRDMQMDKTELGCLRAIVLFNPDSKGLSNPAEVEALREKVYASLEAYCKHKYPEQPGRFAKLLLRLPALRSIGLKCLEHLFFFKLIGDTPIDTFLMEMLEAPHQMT

EC50 (human VDR): 10 to 100 nM
SMILES: C[C@H](CCN1CCOCC1)[C@H]1CC[C@H]2/C(=C/C=C3C[C@@H](O)C[C@H](O)C3)CCC[C@]12C [Compound D023, (1R,3R)-5-(2-((1R,3aS,7aR,E)-7a-methyl-1-((R)-4-morpholinobutan-2-yl)octahydro-4H-inden-4-ylidene)ethylidene)cyclohexane-1,3-diol]
Ratio (%): area of LFB staining positive/area of corpus callosum, mean (mouse cuprizone model): 87.0%
